Literature values, collected in patent US20250115648A1 (priority 2013, published 2025).
“And” between values parts separate entries of the source, which are not always exact repeats. Equal entries are not always repeated.

Details: cited from earlier work; for Peak Abs.: peak absorbance wavelength of exemplary fluorescent reporter molecule; for Peak Em.: peak emission wavelength of exemplary fluorescent reporter molecule

SMILES | Peak Abs. | Peak Em.
CN(C)c1ccc2c(-c3ccc(CCl)cc3)c3ccc(=[N+](C)C)cc-3oc2c1.[Cl-] | 551 nanometers | 576 nanometers
O=S(=O)(O)c1cccc2cccc(Nc3ccccc3)c12 [1,8-ANS] | 372 nanometers | 480 nanometers
CCCCCCCCCCCCc1cc2nc3ccc(O)cc3oc-2cc1=O [2-dodecylresorufm] | 582 nanometers | 595 nanometers
Cc1c(CC(=O)O)c(=O)oc2cc(N)ccc12 [AMCA, aminomethylcoumarin] | 345 nanometers | 425 nanometers
Cc1c(CC(=O)NCCCCCC(=O)O)c(=O)oc2cc(N)ccc12 [AMCA-X] | 353 nanometers | 442 nanometers
Nc1ccc2cc3ccc(N)cc3[n+](CCCC(=O)O)c2c1.[O-][Cl+3]([O-])([O-])[O-] [ATTO 465] | 453 nanometers | 507 nanometers
CC[N+]1=c2cc3c(cc2C(CS(=O)(=O)O)=CC1(C)C)=Cc1cc2c(cc1C3(C)C)N(CCCC(=O)O)C(C)(C)CC2C.[O-][Cl+3]([O-])([O-])[O-] (stereo not shown) [ATTO 647] | 644 nanometers | 670 nanometers
CC[N+]1=c2cc3c(cc2CCC1)=Nc1cc2c(cc1O3)N(CCCC(=O)O)C(C)(C)C=C2CS(=O)(=O)[O-] [ATTO 680] | 680 nanometers | 700 nanometers
CCN1c2cc3c(cc2C(C)=CC1(C)C)N=c1cc2c(cc1O3)=[N+](CCCC(=O)O)C(C)(C)C=C2CS(=O)(=O)O [ATTO 700] | 699 nanometers | 719 nanometers
CC1(C)C=C(CS(=O)(=O)O)c2cc3c(C(F)(F)F)cc(=O)oc3cc2N1CCCCCC(=O)ON1C(=O)CCC1=O.CCN(CC)CC [Alexa Fluor 430] | – | 540 nanometers
CC1CC(C)(C)Nc2c1cc1c(c2S(=O)(=O)[O-])Oc2c(S(=O)(=O)[O-])c3c(cc2=C1c1c(Cl)c(SCC(=O)NCCCCCC(=O)ON2C(=O)CCC2=O)c(Cl)c(Cl)c1C(=O)O)C(C)CC(C)(C)N=3.[H+].[Na+] (stereo not shown) [Alexa Fluor 546] | 561 nanometers | 572 nanometers
CN1C(=Cc2cc[n+](CCC[N+](C)(C)CCC[N+](C)(C)CCC[n+]3ccc(C=C4Sc5ccccc5N4C)cc3)cc2)Sc2ccccc21.[I-].[I-].[I-].[I-] [BOBO-1] | 570 nanometers | 602 nanometers
CN1/C(=C/C=C/c2cc[n+](CCC[N+](C)(C)CCC[N+](C)(C)CCC[n+]3ccc(/C=C/C=C4/Sc5ccccc5N4C)cc3)cc2)Sc2ccccc21.[I-].[I-].[I-].[I-] [BOBO-3] | 570 nanometers and 571 nanometers | 602 nanometers and 606 nanometers
CC1=CC(C)=[N+]2C1=Cc1c(C)cc(C)n1[B-]2(F)F [BODIPY 505/515] | 502 nanometers | 540 nanometers
O=C(COc1ccc(/C=C/c2ccc3n2[B-](F)(F)[N+]2=C(c4cccs4)C=CC2=C3)cc1)NCCCCCC(=O)ON1C(=O)CCC1=O [Bodipy 630/650-X] | – | 641 nanometers
O=C(COc1ccc(C2=[N+]3C(=Cc4ccc(-c5cccs5)n4[B-]3(F)F)C=C2)cc1)NCCCCCC(=O)ON1C(=O)CCC1=O [Bodipy TR-X] | 588 nanometers | 621 nanometers
O=C([O-])CN(CC(=O)[O-])c1ccccc1OCCOc1cc(NC(=O)c2ccc3c(c2)C(=O)OC32c3cc(Cl)c([O-])cc3Oc3cc([O-])c(Cl)cc32)ccc1N(CC(=O)[O-])CC(=O)[O-].[K+].[K+].[K+].[K+].[K+].[K+] [Calcium Green-1] | 506 nanometers | 540 nanometers
O=S(=O)(O)c1cc(Nc2nc(Nc3ccccc3)nc(N(CCO)CCO)n2)ccc1/C=C/c1ccc(Nc2nc(Nc3ccccc3)nc(N(CCO)CCO)n2)cc1S(=O)(=O)O [Calcofluor White] | 350 nanometers | 440 nanometers
